Laboratory results from article PMC7688068 (Journal of medicinal chemistry, 2020).

What was measured:
Raw264.7 cells = format: in vitro ADME, mouse; details: for cellular permeability compared to positive control compound 9 of ref 55: 20 μM input, 2 h, 37 °C; for cellular uptake (cellular bioavailability): LC-MS-based method
[1] = test system: mouse embryonic fibroblasts (MEF cells); details: 72 h, up to 25 μM
[2] = test system: Raw 264.7 vector cells (pcN-HA); assay: signaling in vector control cells, western blot, IFN-γ stimulated; format: cell-based, mouse; details: IFN-γ stimulation
mPTPB [3] = target: T1, mPTPB (Mycobacterium tuberculosis, UniProt I6WXK4); format: biochemical
mPTPB [4] = target: T1, mPTPB; format: biochemical; remark: listed apart in the source

T1 sequence (I6WXK4 whole entry, looked up): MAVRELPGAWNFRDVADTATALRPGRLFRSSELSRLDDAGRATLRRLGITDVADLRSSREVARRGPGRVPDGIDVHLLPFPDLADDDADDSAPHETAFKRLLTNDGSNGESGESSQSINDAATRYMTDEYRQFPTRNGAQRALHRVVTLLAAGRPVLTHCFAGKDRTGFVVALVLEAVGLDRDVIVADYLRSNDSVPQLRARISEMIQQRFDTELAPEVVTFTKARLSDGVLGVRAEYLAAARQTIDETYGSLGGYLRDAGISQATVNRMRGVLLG

O=C(O)C(=O)Nc1ccc(C#Cc2ccc(C(F)(F)F)cc2)cc1 [Compound 4k, 2-Oxo-2-((4-((4-(trifluoromethyl)phenyl)ethynyl)phenyl)amino)acetic Acid]
cellular permeability compared to positive control compound 9 of ref 55 (Raw264.7 cells): better cellular permeability | cellular uptake (cellular bioavailability) (Raw264.7 cells): can easily be taken up

CC(C)(C)OC(=O)Nc1ccc(C#Cc2ccc(NC(=O)C(=O)O)cc2)cc1 [Compound 4s, 2-((4-((4-((tert-Butoxycarbonyl)amino)phenyl)ethynyl)phenyl)amino)-2-oxoacetic Acid]
cellular permeability compared to positive control compound 9 of ref 55 (Raw264.7 cells): better cellular permeability | cytotoxicity (cell viability, MTT) [1]: did not exhibit any significant cytotoxicity

O=C(O)C(=O)Nc1ccc(C#Cc2ccc(C(F)(F)F)cc2Cl)cc1 [Compound 4t, 2-((4-((2-Chloro-4-(trifluoromethyl)phenyl)ethynyl)phenyl)amino)-2-oxoacetic Acid]
pAKT, pERK1/2 and pp38 levels compared to vehicle-treated cells [2]: no significant change | cellular permeability compared to positive control compound 9 of ref 55 (Raw264.7 cells): better cellular permeability | cellular uptake (cellular bioavailability) (Raw264.7 cells): can easily be taken up | cytotoxicity (cell viability, MTT) [1]: did not exhibit any significant cytotoxicity | mode of mPTPB inhibition (mPTPB [3]): reversible and competitive inhibitor

O=C(O)C(=O)Nc1ccc(C#Cc2ccc(C(F)(F)F)cc2Br)cc1 [Compound 4u, 2-((4-((2-Bromo-4-(trifluoromethyl)phenyl)ethynyl)phenyl)amino)-2-oxoacetic Acid]
cellular permeability compared to positive control compound 9 of ref 55 (Raw264.7 cells): better cellular permeability | cellular uptake (cellular bioavailability) (Raw264.7 cells): can easily be taken up

O=C(O)C(=O)Nc1ccc(C#Cc2ccc(C(F)(F)F)cc2F)cc1 [Compound 4v, 2-((4-((2-Fluoro-4-(trifluoromethyl)phenyl)ethynyl)phenyl)amino)-2-oxoacetic Acid]
cellular uptake (cellular bioavailability) (Raw264.7 cells): can easily be taken up

O=C(O)C(=O)Nc1ccc(/C=C\c2ccccc2)cc1 [Compound 9, (Z)-2-Oxo-2-((4-styrylphenyl)amino)acetic Acid]
fold less potency compared to corresponding alkyne analogue (mPTPB [4]): 3 fold

O=C(O)C(=O)Nc1ccc(/C=C\c2ccc(C(F)(F)F)cc2)cc1 [Compound 10, (Z)-2-Oxo-2-((4-(4-(trifluoromethyl)styryl)phenyl)amino)acetic Acid]
fold less potency compared to corresponding alkyne analogue (mPTPB [4]): 45 fold

O=C(O)C(=O)Nc1ccc(CCc2ccccc2)cc1 [Compound 11, 2-Oxo-2-((4-phenethylphenyl)amino)acetic Acid]
fold less potency compared to corresponding alkyne analogue (mPTPB [4]): 5 fold

O=C(O)C(=O)Nc1ccc(CCc2ccc(C(F)(F)F)cc2)cc1 [Compound 12, 2-Oxo-2-((4-(4-(trifluoromethyl)phenethyl)phenyl)amino)acetic Acid]
fold less potency compared to corresponding alkyne analogue (mPTPB [4]): 13 fold
